Patent US20260265238A1, “COMPOUNDS AND PHARMACEUTICAL COMPOSITIONS THAT DEGRADE SWI/SNF-RELATED MATRIX-ASSOCIATED ACTIN-DEPENDENT REGULATOR OF CHROMATIN SUBFAMILY A” (Plexium, Inc., priority 2023, published 2026)

Legend:
[1] = biological target: T1, SMARCA2-HiBiT HeLa cells (protein which is expressed from the SMARCA2 gene) (Homo sapiens, UniProt P51531); test: SMARCA2 degradation assay (HiBiT-fusion HeLa cell line, 24 h, luminescence); type: cell-based
T1 construct: protein which is expressed from the SMARCA2 and SMARCA4 genes; host or cells: HeLa (SMARCA2-HiBiT engineered line)
T1 sequence (P51531 whole entry, the tested form may be a part): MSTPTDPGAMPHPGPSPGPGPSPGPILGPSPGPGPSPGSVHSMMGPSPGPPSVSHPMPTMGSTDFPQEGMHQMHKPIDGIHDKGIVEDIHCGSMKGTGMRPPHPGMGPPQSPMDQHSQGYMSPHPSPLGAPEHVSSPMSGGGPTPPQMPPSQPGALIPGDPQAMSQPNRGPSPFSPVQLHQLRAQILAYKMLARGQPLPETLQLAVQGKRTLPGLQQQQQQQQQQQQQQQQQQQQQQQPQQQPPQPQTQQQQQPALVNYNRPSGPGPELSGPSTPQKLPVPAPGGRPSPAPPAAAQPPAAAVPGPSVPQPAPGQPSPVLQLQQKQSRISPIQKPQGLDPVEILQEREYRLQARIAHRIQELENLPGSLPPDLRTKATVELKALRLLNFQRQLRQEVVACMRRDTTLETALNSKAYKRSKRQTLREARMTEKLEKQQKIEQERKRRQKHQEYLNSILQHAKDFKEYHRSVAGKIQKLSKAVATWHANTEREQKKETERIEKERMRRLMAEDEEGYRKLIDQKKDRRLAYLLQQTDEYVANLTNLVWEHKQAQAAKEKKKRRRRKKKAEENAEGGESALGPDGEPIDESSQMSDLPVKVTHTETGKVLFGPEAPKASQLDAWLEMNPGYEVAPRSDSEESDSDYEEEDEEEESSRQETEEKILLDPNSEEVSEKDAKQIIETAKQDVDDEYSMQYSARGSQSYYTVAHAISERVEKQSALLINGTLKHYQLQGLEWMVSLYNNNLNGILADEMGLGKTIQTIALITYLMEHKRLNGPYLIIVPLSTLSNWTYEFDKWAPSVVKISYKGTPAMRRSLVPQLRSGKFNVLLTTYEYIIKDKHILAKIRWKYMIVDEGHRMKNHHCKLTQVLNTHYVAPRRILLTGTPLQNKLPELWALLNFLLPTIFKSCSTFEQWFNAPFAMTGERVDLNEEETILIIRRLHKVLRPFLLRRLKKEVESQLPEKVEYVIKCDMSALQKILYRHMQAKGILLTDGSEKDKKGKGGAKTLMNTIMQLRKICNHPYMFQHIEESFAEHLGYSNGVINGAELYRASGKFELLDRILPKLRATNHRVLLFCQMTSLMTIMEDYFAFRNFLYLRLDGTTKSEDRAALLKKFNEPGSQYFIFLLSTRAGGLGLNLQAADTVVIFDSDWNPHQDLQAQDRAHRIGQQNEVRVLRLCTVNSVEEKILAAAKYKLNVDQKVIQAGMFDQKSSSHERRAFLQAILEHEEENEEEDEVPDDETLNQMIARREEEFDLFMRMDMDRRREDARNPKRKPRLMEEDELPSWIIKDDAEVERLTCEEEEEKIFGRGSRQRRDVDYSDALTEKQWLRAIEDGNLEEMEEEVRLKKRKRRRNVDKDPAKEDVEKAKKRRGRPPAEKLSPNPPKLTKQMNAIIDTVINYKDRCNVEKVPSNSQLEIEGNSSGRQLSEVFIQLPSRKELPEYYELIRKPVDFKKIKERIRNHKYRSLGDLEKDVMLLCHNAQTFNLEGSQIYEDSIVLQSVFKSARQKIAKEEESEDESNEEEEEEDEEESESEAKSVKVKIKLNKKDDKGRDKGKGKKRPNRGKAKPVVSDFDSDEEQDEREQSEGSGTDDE
Protocol: (§1) SMARCA2 and SMARCA4 Degradation Assay
(§2) Degradation of protein which is expressed from the SMARCA2 and SMARCA4 genes was monitored using engineered HiBiT-fusion HeLa cell lines from Promega. In brief, 384-well white opaque plates (Greiner) were seeded with SMARCA2-HiBiT or SMARCA4-HiBiT HeLa cells at 8,000 cells/well and incubated overnight at 37° C. to allow cell attachment. After overnight incubation, test compounds were added in a 10-point dilution series (typically 10 μM to 300 pM) using a TECAN D300e Digital Dispenser, and plates were subsequently incubated for 24 hours at 37° C. 24-hours post-treatment, protein levels were quantified with the addition of HiBiT lytic buffer, LgBiT protein, and HiBiT substrate, according to manufacturer's specifications. Plates were incubated on an orbital plate shaker for 10 minutes at room temperature. Resulting luminescent values were read out using a ClarioStar plate reader and used to construct dose-response curves and calculation of degradation DC50s (GraphPad Prism).
(§3) Activity of the tested compounds is provided in Table 4 below as follows: A=DC50<0.050 μM; B=0.05 μM<DC50<0.50 μM; C=<0.5 μM<DC50<5.0 μM; D=DC50>5.0 μM. For SMARCA2 and SMARCA4 degradation activity @1 μM, +++=>70%; ++=30-70%; +=<30%.

[2] = biological target: T2, SMARCA4-HiBiT HeLa cells (protein which is expressed from the SMARCA4 gene) (Homo sapiens, UniProt P51532); test: SMARCA4 degradation assay (HiBiT-fusion HeLa cell line, 24 h, luminescence); type: cell-based
T2 construct: protein which is expressed from the SMARCA2 and SMARCA4 genes; host or cells: HeLa (SMARCA4-HiBiT engineered line)
T2 sequence (P51532 whole entry, the tested form may be a part): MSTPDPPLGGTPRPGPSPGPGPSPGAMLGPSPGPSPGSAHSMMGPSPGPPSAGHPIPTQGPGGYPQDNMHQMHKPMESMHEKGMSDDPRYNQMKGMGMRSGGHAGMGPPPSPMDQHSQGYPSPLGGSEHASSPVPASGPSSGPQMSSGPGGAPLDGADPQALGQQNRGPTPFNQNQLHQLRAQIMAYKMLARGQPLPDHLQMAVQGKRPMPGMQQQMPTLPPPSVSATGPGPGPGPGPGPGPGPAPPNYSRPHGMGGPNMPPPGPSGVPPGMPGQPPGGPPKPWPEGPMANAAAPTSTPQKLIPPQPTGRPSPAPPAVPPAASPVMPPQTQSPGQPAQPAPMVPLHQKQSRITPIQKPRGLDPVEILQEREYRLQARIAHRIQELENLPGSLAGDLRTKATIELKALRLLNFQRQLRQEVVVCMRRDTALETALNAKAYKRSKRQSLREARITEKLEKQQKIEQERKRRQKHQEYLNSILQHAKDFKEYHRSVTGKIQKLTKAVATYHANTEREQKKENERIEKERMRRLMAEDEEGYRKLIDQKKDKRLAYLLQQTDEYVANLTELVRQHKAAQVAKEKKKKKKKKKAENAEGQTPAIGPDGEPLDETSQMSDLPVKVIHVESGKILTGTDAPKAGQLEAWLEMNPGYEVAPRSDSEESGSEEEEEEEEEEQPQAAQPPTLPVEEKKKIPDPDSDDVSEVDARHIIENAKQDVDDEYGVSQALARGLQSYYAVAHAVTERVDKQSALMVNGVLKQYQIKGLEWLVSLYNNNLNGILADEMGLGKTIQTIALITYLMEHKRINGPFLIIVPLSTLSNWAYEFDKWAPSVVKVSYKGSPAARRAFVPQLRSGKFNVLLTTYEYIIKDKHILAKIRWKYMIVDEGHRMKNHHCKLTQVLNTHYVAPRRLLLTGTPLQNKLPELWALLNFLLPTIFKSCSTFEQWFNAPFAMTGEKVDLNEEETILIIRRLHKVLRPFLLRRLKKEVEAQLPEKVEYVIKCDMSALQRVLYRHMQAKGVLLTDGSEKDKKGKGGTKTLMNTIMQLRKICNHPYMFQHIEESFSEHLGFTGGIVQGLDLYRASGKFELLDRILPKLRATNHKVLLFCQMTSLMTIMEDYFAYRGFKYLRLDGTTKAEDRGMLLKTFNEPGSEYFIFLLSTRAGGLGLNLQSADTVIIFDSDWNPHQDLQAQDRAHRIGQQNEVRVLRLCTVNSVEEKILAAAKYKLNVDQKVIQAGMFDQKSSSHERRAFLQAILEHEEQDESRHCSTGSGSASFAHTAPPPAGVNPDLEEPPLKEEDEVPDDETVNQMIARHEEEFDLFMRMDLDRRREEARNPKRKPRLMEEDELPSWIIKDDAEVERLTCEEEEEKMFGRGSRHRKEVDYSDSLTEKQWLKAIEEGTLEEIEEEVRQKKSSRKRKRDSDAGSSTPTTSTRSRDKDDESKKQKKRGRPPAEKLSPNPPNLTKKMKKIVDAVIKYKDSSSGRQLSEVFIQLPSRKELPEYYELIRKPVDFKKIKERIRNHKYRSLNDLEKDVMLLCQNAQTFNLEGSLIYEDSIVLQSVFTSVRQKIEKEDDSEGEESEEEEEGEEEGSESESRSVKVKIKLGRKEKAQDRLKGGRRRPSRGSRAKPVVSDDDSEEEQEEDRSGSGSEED
Protocol: as §1, §2, §3

SMILES: CC1CCN(c2ccnc(C#CCNC(=O)c3cc4ncccn4n3)n2)CCN1c1cc(-c2ccccc2O)nnc1N (stereo not shown) [Compound P-19, N-(3-(4-(4-(3-amino-6-(2-hydroxyphenyl)pyridazin-4-yl)-5-methyl-1,4-diazepan-1-yl)pyrimidin-2-yl)prop-2-yn-1-yl)pyrazolo[1,5-a]pyrimidine-2-carboxamide]
- DC50 [1]: 500 to 5000 nM
- SMARCA2 % Degradation @ 1 μM ([1]; @ 1 μM): ++ (++=30-70%)
- DC50 [2]: 500 to 5000 nM
- inhibition at 1 µM ([2]; @ 1 μM): 30 to 70%

SMILES: Cn1ccc(NCC#Cc2nccc(N3C4CCC3CN(c3cc(-c5ccccc5O)nnc3N)C4)n2)n1 [Compound P-287]
- DC50 [1]: 50 to 500 nM
- SMARCA2 % Degradation @ 1 μM ([1]; @ 1 μM): ++ (++=30-70%)
- DC50 [2]: 50 to 500 nM
- inhibition at 1 µM ([2]; @ 1 μM): 30 to 70%

SMILES: C[C@@H]1CN(c2cc(-c3ccccc3O)nnc2N)CCN1c1ccnc(C#CCNC(=O)c2cc3ncccn3n2)n1 [Compound P-50, (R)-N-(3-(4-(4-(3-amino-6-(2-hydroxyphenyl)pyridazin-4-yl)-2-methylpiperazin-1-yl)pyrimidin-2-yl)prop-2-yn-1-yl)pyrazolo[1,5-a]pyrimidine-2-carboxamide]
- DC50 [1]: < 50 nM
- SMARCA2 % Degradation @ 1 μM ([1]; @ 1 μM): ++ (++=30-70%)
- DC50 [2]: < 50 nM
- inhibition at 1 µM ([2]; @ 1 μM): 30 to 70%

SMILES: C[C@@H]1CCN(c2cc(-c3ccccc3O)nnc2N)CCN1c1cc(C#CCN2CCCCC2)ncc1F [Compound P-414, 0-(5-{(R)-4-[5-fluoro-2-(3-piperidino-1-propynyl)-4-pyridyl]-5-methyl-1,4-diazepan-1-yl}-6-amino-3-pyridazinyl)phenol]
- DC50 [1]: 50 to 500 nM
- SMARCA2 % Degradation @ 1 μM ([1]; 1 μM): + (+=<30%)
- DC50 [2]: 50 to 500 nM
- inhibition at 1 µM ([2]; 1 μM): 30 to 70%

SMILES: CC(C)(C)OC(=O)NC1CCN(CC#Cc2nccc(N3C4CCC3CN(c3cnnc(-c5ccccc5O)c3)C4)n2)CC1 [Compound P-368, tert-butyl-1-[3-(4-{3-[6-(o-hydroxyphenyl)-4-pyridazinyl]-3,8-diazabicyclo[3.2.1]oct-8-y1}-2-pyrimidinyl)-2-propynyl]-4-piperidylaminoformylate]
- DC50 [1]: 50 to 500 nM
- SMARCA2 % Degradation @ 1 μM ([1]; @ 1 μM): ++ (++=30-70%)
- DC50 [2]: 50 to 500 nM
- SMARCA4 % Degradation @ 1 μM ([2]; @ 1 μM): ++ (++=30-70%)

SMILES: C[C@@H]1CCN(c2cc(-c3ccccc3O)nnc2N)CCN1c1ccnc(C#CCN2CCCC2=O)c1 [Compound P-390, 1-[3-(4-{ (R)-4-[3-amino-6-(o-hydroxyphenyl)-4-pyridaziny1]-7-methyl-1,4-diazepan-1-yl}-2-pyridyl)-2-propynyl]-2-pyrrolidinone]
- DC50 [1]: 50 to 500 nM
- SMARCA2 % Degradation @ 1 μM ([1]; 1 μM): +++ (+++=>70%)
- DC50 [2]: 50 to 500 nM
- inhibition at 1 µM ([2]; 1 μM): > 70%

SMILES: Nc1nnc(-c2ccccc2O)cc1N1CCCC2(CCN(c3ccnc(C#CCNC(=O)c4cc5ncccn5n4)n3)CC2)C1 [Compound P-33, N-(3-(4-(2-(3-amino-6-(2-hydroxyphenyl)pyridazin-4-yl)-2,9-diazaspiro[5.5]undecan-9-yl)pyrimidin-2-yl)prop-2-yn-1-yl)pyrazolo[1,5-a]pyrimidine-2-carboxamide]
- DC50 [1]: 50 to 500 nM
- SMARCA2 % Degradation @ 1 μM ([1]; @ 1 μM): ++ (++=30-70%)
- DC50 [2]: 50 to 500 nM
- inhibition at 1 µM ([2]; @ 1 μM): 30 to 70%

SMILES: Nc1nnc(-c2ccccc2O)cc1N1CC2CCC(C1)N2c1ccnc(C#CC2(NC(=O)c3cc4ncccn4n3)CC2)n1 [Compound P-98, N-(1-((4-(3-(3-amino-6-(2-hydroxyphenyl)pyridazin-4-yl)-3,8-diazabicyclo[3.2.1]octan-8-yl)pyrimidin-2-yl)ethynyl)cyclopropyl)pyrazolo[1,5-a]pyrimidine-2-carboxamide]
- DC50 [1]: 50 to 500 nM
- SMARCA2 % Degradation @ 1 μM ([1]; @ 1 μM): ++ (++=30-70%)
- DC50 [2]: 50 to 500 nM
- inhibition at 1 µM ([2]; @ 1 μM): 30 to 70%

SMILES: Nc1nnc(-c2ccccc2O)cc1N1C2CC1CN(c1ccnc(C#CCNC(=O)c3cc4ncccn4n3)n1)C2 [Compound P-80, N-(3-(4-(6-(3-amino-6-(2-hydroxyphenyl)pyridazin-4-yl)-3,6-diazabicyclo[3.1.1]heptan-3-yl)pyrimidin-2-yl)prop-2-yn-1-yl)pyrazolo[1,5-a]pyrimidine-2-carboxamide]
- DC50 [1]: 500 to 5000 nM
- SMARCA2 % Degradation @ 1 μM ([1]; @ 1 μM): + (+=<30%)
- DC50 [2]: > 5000 nM
- inhibition at 1 µM ([2]; @ 1 μM): < 30%

SMILES: CNCC#Cc1nccc(N2C[C@H]3C[C@@H]2CN3c2cc(-c3ccccc3O)nnc2N)n1 [Compound P-295, 0-{5-[(1R,4R)-5-{2-[3-(methylamino)-1-propynyl]-4-pyrimidinyl}-2,5-diazabicyclo[2.2.1]hept-2-y1]-6-amino-3-pyridazinyl} phenol]
- DC50 [1]: 50 to 500 nM
- SMARCA2 % Degradation @ 1 μM ([1]; @ 1 μM): ++ (++=30-70%)
- DC50 [2]: 50 to 500 nM
- inhibition at 1 µM ([2]; @ 1 μM): < 30%

SMILES: C[C@@H]1CCN(c2cc(-c3ccccc3O)nnc2N)CCN1c1ccnc(C#CCN2CCC(C#N)C2)n1 (stereo partly shown) [Compound P-245]
- DC50 [1]: 50 to 500 nM
- SMARCA2 % Degradation @ 1 μM ([1]; @ 1 μM): +++ (+++=>70%)
- DC50 [2]: 50 to 500 nM
- inhibition at 1 µM ([2]; @ 1 μM): 30 to 70%

SMILES: CC(C)(C)OC(=O)NCC#Cc1nccc(N2CCC3CCC(C2)N3c2cc(-c3ccccc3O)nnc2N)n1 (stereo not shown) [Compound P-267, 3-(4-{9-[3-amino-6-(o-hydroxyphenyl)-4-pyridaziny1]-3,9-diazabicyclo[4.2.1]non-3-yl}-2-pyrimidinyl)-2-propynylamino-tert-butylformylate]
- DC50 [1]: 50 to 500 nM
- SMARCA2 % Degradation @ 1 μM ([1]; @ 1 μM): +++ (+++=>70%)
- DC50 [2]: 50 to 500 nM
- inhibition at 1 µM ([2]; @ 1 μM): 30 to 70%

SMILES: C[C@@H]1CCN(c2cc(-c3ccccc3O)nnc2N)CCN1c1ccnc(C#C[C@H](O)C2CC2)n1 [Compound P-266, 0-{5-[(R)-4-{2-[(R)-3-cyclopropyl-3-hydroxy-1-propynyl]-4-pyrimidinyl}-5-methyl-1,4-diazepan-1-yl]-6-amino-3-pyridaziny1} phenol]
- DC50 [1]: 50 to 500 nM
- SMARCA2 % Degradation @ 1 μM ([1]; @ 1 μM): +++ (+++=>70%)
- DC50 [2]: 50 to 500 nM
- inhibition at 1 µM ([2]; @ 1 μM): 30 to 70%

SMILES: C[C@@H]1CCN(c2cc(-c3ccccc3O)nnc2N)CCN1c1ccnc(C#CCN2[C@H](C)C[C@@H]2C)n1 [Compound P-223, o-{5-[(R)-4-(2-{3-[(2R,4S)-2,4-dimethyl-1-azetidinyl]-1-propynyl}-4-pyrimidinyl)-5-methyl-1,4-diazepan-1-y1]-6-amino-3-pyridazinyl}phenol]
- DC50 [1]: < 50 nM
- SMARCA2 % Degradation @ 1 μM ([1]; @ 1 μM): ++ (++=30-70%)
- DC50 [2]: < 50 nM
- inhibition at 1 µM ([2]; @ 1 μM): 30 to 70%

SMILES: Nc1nnc(-c2ccccc2O)cc1N1CCC2CCN(c3ccnc(C#CCNC(=O)c4cc5ncccn5n4)n3)C2C1 (stereo not shown) [Compound P-37, N-(3-(4-(6-(3-amino-6-(2-hydroxyphenyl)pyridazin-4-yl)octahydro-1H-pyrrolo[2,3-c]pyridin-1-yl)pyrimidin-2-y1)prop-2-yn-1-yl)pyrazolo[1,5-a]pyrimidine-2-carboxamide]
- DC50 [1]: 50 to 500 nM
- SMARCA2 % Degradation @ 1 μM ([1]; @ 1 μM): ++ (++=30-70%)
- DC50 [2]: 50 to 500 nM
- inhibition at 1 µM ([2]; @ 1 μM): 30 to 70%

SMILES: Nc1nnc(-c2ccccc2O)cc1N1C[C@@H]2C[C@H]1CN2c1ccnc(C#CCNC(=O)c2cc3ncccn3n2)n1 [Compound P-30, N-(3-(4-((1S,4S)-5-(3-amino-6-(2-hydroxyphenyl)pyridazin-4-yl)-2,5-diazabicyclo[2.2.1]heptan-2-yl)pyrimidin-2-yl)prop-2-yn-1-yl)pyrazolo[1,5-a]pyrimidine-2-carboxamide]
- DC50 [1]: 500 to 5000 nM
- SMARCA2 % Degradation @ 1 μM ([1]; @ 1 μM): ++ (++=30-70%)
- DC50 [2]: 500 to 5000 nM
- inhibition at 1 µM ([2]; @ 1 μM): 30 to 70%

SMILES: COCC1COCCN1CC#Cc1nccc(N2CCN(c3cc(-c4ccccc4O)nnc3N)CC[C@H]2C)n1 (stereo partly drawn) [Compound P-162, o-{5-[(R)-4-(2-{3-[3-(mcthoxymcthyl)-4-morpholinyl]-1-propynyl}-4-pyrimidinyl)-5-methyl-1,4-diazepan-1-yl]-6-amino-3-pyridazinyl}phenol]
- DC50 [1]: 50 to 500 nM
- SMARCA2 % Degradation @ 1 μM ([1]; @ 1 μM): ++ (++=30-70%)
- DC50 [2]: 50 to 500 nM
- inhibition at 1 µM ([2]; @ 1 μM): 30 to 70%

SMILES: C[C@@H]1CCN(c2cc(-c3ccccc3O)nnc2N)CCN1c1ccc(C#N)c(C#CCN2CC(F)(F)C2)n1 [Compound P-412, 6-{(R)-4-[3-amino-6-(0-hydroxyphenyl)-4-pyridazinyl]-7-methyl-1,4-diazepan-1-yl}-2-[3-(3,3-difluoro-1-azetidinyl)-1-propynyl]nicotinonitrile]
- DC50 [1]: 50 to 500 nM
- SMARCA2 % Degradation @ 1 μM ([1]; 1 μM): ++ (++=30-70%)
- DC50 [2]: 50 to 500 nM
- inhibition at 1 µM ([2]; 1 μM): < 30%

SMILES: NCC#Cc1nccc(N2CCC3C2CCCN3c2cc(-c3ccccc3O)nnc2N)n1 (stereo not shown) [Compound P-88, 2-(6-amino-5-(1-(2-(3-aminoprop-1-yn-1-yl)pyrimidin-4-yl)octahydro-4H-pyrrolo[3,2-b]pyridin-4-yl)pyridazin-3-yl)phenol]
- DC50 [1]: > 5000 nM
- SMARCA2 % Degradation @ 1 μM ([1]; @ 1 μM): + (+=<30%)

SMILES: NCC#Cc1nccc(N2CCCC3(CCN(c4cc(-c5ccccc5O)nnc4N)CC3)C2)n1 [Compound P-87, 2-(6-amino-5-(2-(2-(3-aminoprop-1-yn-1-yl)pyrimidin-4-yl)-2,9-diazaspiro[5.5]undecan-9-yl)pyridazin-3-yl)phenol]
- DC50 [1]: 500 to 5000 nM
- SMARCA2 % Degradation @ 1 μM ([1]; @ 1 μM): + (+=<30%)
